Reference: patent US4749686A, “Combinations of renal vasodilators and α1 -adrenergic or ganglionic blocking agents and methods for treating diseases” (New York Medical College, priority 1986, dated 1988)
Entries after “also recorded” stand apart in the source; their conditions may differ.

Test system: conscious dogs
Assay: one-hour infusion of atriopeptin 24 in conscious dogs, renal hemodynamics and function, before and after α1-adrenergic receptor blockade
Format: in vivo, dog
Details: prazosin 1 mg/kg 40 minutes prior to one-hour atriopeptin 24 infusion
Description: In this example, I first infused conscious dogs for one hour with atriopeptin 24 and measured the effects on renal hemodynamics and function. At least one week later, I treated the same dogs with the α1 -adrenergic blocking agent, prazosin, 40 minutes prior to a one-hour atriopeptin 24 infusion.
The experiments were conducted using the following techniques and devices: female mongrel dogs were instrumented using sterile surgical techniques under sodium pentobarbital anesthesia (25 mg/kg). To measure renal blood flow, a Doppler ultrasonic flow transducer (Parks Electronics) was placed around the left renal artery. […]
Arterial pressure was recorded using the implanted catheter attached to a Statham P23Db strain gauge transducer. Renal blood flow was measured using an ultrasonic flowmeter (Model 806A, Parks Electronics) and the implanted Doppler flow transducer. Phasic arterial pressure and renal blood flow were recorded on magnetic tape (Bell and Howell 3700B) and played back on a direct writing oscillograph (Gould-Brush 2800S). […] Heart rate was calculated using a cardiotachometer (Beckman Model 80574) from the pressure pulse interval.
To measure renal function, urine samples were taken from the dogs, urine volume was measured and the concentration of urine and plasma sodium (Na) and potassium (K) was assayed using a flame photometer (Instrumentation Laboratories, Model 343). […]

COc1cc2nc(N3CCN(C(=O)c4ccco4)CC3)nc(N)c2cc1OC [prazosin]
effect of α1-adrenergic blockade on renal vasodilation produced by atriopeptin 24: renal blood flow remained elevated for the duration of the atriopeptin 24 infusion; also recorded: caused a sustained renal vasodilation
